According to paper PMC12246642 (iScience, 2025):

Key:
SARS-CoV-2 Mpro [1] = molecular target: T1, SARS-CoV-2 Mpro (Severe acute respiratory syndrome coronavirus 2, UniProt P0DTD1); test: biochemical; assay type: biochemical; settings: aldehyde hydration penalty taken into account
SARS-CoV-2 Mpro [2] = molecular target: T1, SARS-CoV-2 Mpro; test: Covalent bond (adduct) formation kinetics by IR-MALDESI intact protein MS; assay type: binding; settings: for covalent complex formation in the titration of compound versus Mpro: up to 5-fold molar excess of compound, unquenched condition for compound 5
[3] = molecular target: His tag SARS-CoV-2 3CLpro (1-306) F305A, Q306A (Severe acute respiratory syndrome coronavirus 2, UniProt P0DTD1, F3568A/Q3569A); assay type: binding

## COc1cccc2[nH]c(C(=O)N[C@@H](CC3CC3)C(=O)N[C@H](C=O)C[C@@H]3CCNC3=O)cc12 [Compound 1, N-((S)-3-cyclopropyl-1-oxo-1-(((S)-1-oxo-3-((S)-2-oxopyrrolidin-3-yl)propan-2-yl)amino)propan-2-yl)-4-methoxy-1H-indole-2-carboxamide]
SARS-CoV-2 Mpro [1]
  likely affinity accounting for the hydration penalty: ~10 pM
SARS-CoV-2 Mpro [2]
  time for which covalent binding persists after chase (reversibility of adduct formation): at least 4 h
  covalent complex formation in the titration of compound versus Mpro: did not reach saturation

## O=C[C@H](C[C@@H]1CCNC1=O)NC(=O)[C@H](CC1CC1)NC(=O)OCc1ccccc1 [Compound 2, benzyl ((S)-3-cyclopropyl-1-oxo-1-(((S)-1-oxo-3-((S)-2-oxopyrrolidin-3-yl)propan-2-yl)amino)propan-2-yl)carbamate]
SARS-CoV-2 Mpro [1]
  likely affinity accounting for the hydration penalty: ~10 pM

## COc1cccc2[nH]c(C(=O)N[C@@H](CC3CC3)C(=O)N[C@H](C#N)C[C@@H]3CCNC3=O)cc12 [Compound 5, N-((S)-1-(((S)-1-cyano-2-((S)-2-oxopyrrolidin-3-yl)ethyl)amino)-3-cyclopropyl-1-oxopropan-2-yl)-4-methoxy-1H-indole-2-carboxamide]
SARS-CoV-2 Mpro [2]
  time for which covalent binding persists after chase (reversibility of adduct formation): ≤ 1 h
  covalent complex formation in the titration of compound versus Mpro: ~100%

## CS(=O)(=O)CC[C@@H](C#N)NC(=O)[C@H](CC1CC1)NC(=O)OCc1ccccc1 [Compound 8, benzyl ((S)-1-(((S)-1-cyano-3-(methylsulfonyl)propyl)amino)-3-cyclopropyl-1-oxopropan-2-yl)carbamate]
[3]
  Kd: No Activity
  T1/2: No activity
